Source: patent publication US8802597B2, “Herbicidal pyrimidines” (E I du Pont de Nemours and Company, priority 2003, dated 2014)

Assays:
Assay in all cases: Test A pre/postemergence
Type in all cases: in vivo
[1] = tested on: redroot pigweed (Amaranthus retroflexus)
Procedure: (§1) Seeds of barnyardgrass (Echinochloa crus-galli), crabgrass (Digitaria sanguinalis), giant foxtail (Setaria faberi), morningglory (Ipomoea spp.), redroot pigweed (Amaranthus retroflexus) and velvetleaf (Abutilon theophrasti) were planted into a blend of loam soil and sand and treated preemergence with a directed soil spray using test chemicals formulated in a non-phytotoxic solvent mixture which included a surfactant. At the same time these species were also treated with postemergence applications of test chemicals formulated in the same manner.
(§2) Plants ranged in height from 2 to 10 cm and were in the 1- to 2-leaf stage for the postemergence treatment. Treated plants and untreated controls were maintained in a greenhouse for approximately ten days, after which time all treated plants were compared to untreated controls and visually evaluated for injury. Plant response ratings, summarized in Table A, are based on a 0 to 100 scale where 0 is no effect and 100 is complete control. A dash (-) response means no test results.

[2] = tested on: barnyardgrass (Echinochloa crus-galli)
Procedure: as §1, §2

[3] = tested on: morningglory (Ipomoea spp.)
Procedure: as §1, §2

[4] = tested on: giant foxtail (Setaria faberi)
Procedure: as §1, §2

[5] = tested on: velvetleaf (Abutilon theophrasti)
Procedure: as §1, §2

[6] = tested on: crabgrass (Digitaria sanguinalis)
Procedure: as §1, §2

[7] = Postemergence, 125 g ai/ha, 0 to 100 scale (0 no effect, 100 complete control)
[8] = Postemergence, 500 g ai/ha, 0 to 100 scale (0 no effect, 100 complete control)
[9] = Preemergence, 125 g ai/ha, 0 to 100 scale where 0 is no effect and 100 is complete control, approximately ten days
[10] = Preemergence, 500 g ai/ha, 0 to 100 scale where 0 is no effect and 100 is complete control, approximately ten days

| Compound | Plant response rating, Pigweed [1, 7] | Plant response rating, Pigweed [1, 8] | Plant response rating, Pigweed [1, 9] | Plant response rating, Pigweed [1, 10] | Plant response rating, Barnyardgrass [2, 7] | Plant response rating, Barnyardgrass [2, 8] | Plant response rating, Barnyardgrass [2, 9] | Plant response rating, Barnyardgrass [2, 10] | Plant response rating, Morningglory [3, 7] | Plant response rating, Morningglory [3, 8] | Plant response rating, Morningglory [3, 9] | Plant response rating, Morningglory [3, 10] | Plant response rating, Foxtail, Giant [4, 7] | Plant response rating, Foxtail, Giant [4, 8] | Plant response rating, Foxtail, Giant [4, 9] | Plant response rating, Foxtail, Giant [4, 10] | Plant response rating, Velvetleaf [5, 7] | Plant response rating, Velvetleaf [5, 8] | Plant response rating, Velvetleaf [5, 9] | Plant response rating, Velvetleaf [5, 10] | also measured |
| --- | --- | --- | --- | --- | --- | --- | --- | --- | --- | --- | --- | --- | --- | --- | --- | --- | --- | --- | --- | --- | --- |
| COC(=O)c1nc(-c2ccc(C)cc2)nc(N)c1Br [Compound 82] | 45 | 75 | 0 | 70 | 40 | 50 | 0 | 15 | 20 | 40 | 0 | 0 | 0 | 0 | 0 | 0 | 90 | 90 | 5 | 35 | Plant response rating, Crabgrass [6, 7]: 0; Plant response rating, Crabgrass [6, 8]: 0; Plant response rating, Crabgrass [6, 9]: 0; Plant response rating, Crabgrass [6, 10]: 0 |
| COC(=O)c1nc(-c2ccc(C)c(F)c2)nc(N)c1Cl [Compound 86] | 20 | 50 | 0 | 5 | 10 | 30 | 0 | 0 | 0 | 20 | 0 | 0 | 0 | 0 | 0 | 0 | 70 | 85 | 0 | 10 | Plant response rating, Crabgrass [6, 7]: 0; Plant response rating, Crabgrass [6, 8]: 0; Plant response rating, Crabgrass [6, 9]: 0; Plant response rating, Crabgrass [6, 10]: 0 |
| Cc1ccc(-c2nc(N)c(Cl)c(C(=O)O)n2)cc1F [Compound 87] | 55 | 90 | 85 | 100 | 50 | 90 | 0 | 20 | 0 | 15 | 0 | 20 | 0 | 30 | 0 | 0 | 90 | 95 | 25 | 95 | Plant response rating, Crabgrass [6, 7]: 0; Plant response rating, Crabgrass [6, 8]: 10; Plant response rating, Crabgrass [6, 9]: 10; Plant response rating, Crabgrass [6, 10]: 75 |
| Cc1ccc(-c2nc(N)c(Br)c(C(=O)O)n2)cc1 [Compound 89] | 50 | 100 | 80 | 100 | 60 | 85 | 0 | 50 | 0 | 30 | 0 | 0 | 10 | 45 | 0 | 10 | 70 | 95 | 20 | 75 | Plant response rating, Crabgrass [6, 7]: 0; Plant response rating, Crabgrass [6, 8]: 10; Plant response rating, Crabgrass [6, 9]: 0; Plant response rating, Crabgrass [6, 10]: 60 |
| Nc1nc(-c2ccc(F)cc2)nc(C(=O)O)c1Cl [Compound 90] | 35 | 90 | 70 | 80 | 0 | 10 | 0 | 35 | 20 | 65 | 0 | 25 | 0 | 30 | 0 | 15 | 65 | 85 | 10 | 45 | Plant response rating, Crabgrass [6, 7]: 0; Plant response rating, Crabgrass [6, 8]: 20; Plant response rating, Crabgrass [6, 9]: 10; Plant response rating, Crabgrass [6, 10]: 50 |
| Nc1nc(-c2ccc(F)cc2)nc(C(=O)O)c1Br [Compound 93] | 45 | 70 | 80 | 90 | 0 | 0 | 5 | 30 | 40 | 55 | 0 | 5 | 0 | 0 | 5 | 35 | 65 | 80 | 55 | 85 | Plant response rating, Crabgrass [6, 7]: 0; Plant response rating, Crabgrass [6, 8]: 0; Plant response rating, Crabgrass [6, 9]: 25; Plant response rating, Crabgrass [6, 10]: 45 |
| COC(=O)c1nc(-c2cccc(C)c2)nc(N)c1Cl [Compound 97] | 10 | 30 | 25 | 70 | 30 | 10 | 0 | 0 | 45 | 50 | 0 | 0 | 0 | 0 | 5 | 5 | 60 | 70 | 45 | 50 | Plant response rating, Crabgrass [6, 7]: 0; Plant response rating, Crabgrass [6, 8]: 0; Plant response rating, Crabgrass [6, 9]: 15; Plant response rating, Crabgrass [6, 10]: 25 |
